Assay results: PubChem BioAssay (NCI)
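A five-concentration, 48-hour dose response in 96-well plates underlies each endpoint, interpolated linearly between surrounding concentrations. Abbreviation: GI50, concentration required for 50% inhibition of growth. TGI: total growth inhibition.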

Key:
Experiment in all cases: growth of human tumour cells (NCI), 48 h
NCI-H226 lung = test system: NCI-H226 lung
NCI-H522 lung = test system: NCI-H522 lung
OVCAR-3 ovarian = test system: OVCAR-3 ovarian
HCT-116 colon = test system: HCT-116 colon
HL-60(TB) leukemia = test system: HL-60(TB) leukemia
OVCAR-8 ovarian = test system: OVCAR-8 ovarian
IGROV1 ovarian = test system: IGROV1 ovarian
NCI-H460 lung = test system: NCI-H460 lung
K-562 leukemia = test system: K-562 leukemia
MALME-3M melanoma = test system: MALME-3M melanoma
M14 melanoma = test system: M14 melanoma
MDA-MB-435 = test system: MDA-MB-435

Compound `Nc1ccc(N=Nc2ccc(/C=C/c3ccc(N=Nc4ccc(N)c5ccc(S(=O)(=O)O)cc45)cc3S(=O)(=O)O)c(S(=O)(=O)O)c2)c2cc(S(=O)(=O)O)ccc12` has a TGI (NCI-H226 lung) of over 100 µM, a TGI (NCI-H522 lung) of over 100 µM and a TGI (OVCAR-3 ovarian) of over 100 µM. It also gave a TGI (HCT-116 colon) of over 100 µM, a TGI (HL-60(TB) leukemia) of over 100 µM and a TGI (OVCAR-8 ovarian) of over 100 µM. For the same compound, the TGI (IGROV1 ovarian) was over 100 µM, the TGI (NCI-H460 lung) was over 100 µM and the TGI (K-562 leukemia) was over 100 µM. For the same compound, the TGI (MALME-3M melanoma) was over 100 µM.
`O=c1c2cc(I)ccc2nc(-c2cccs2)n1Nc1ccccc1` gave a TGI (NCI-H226 lung) of over 100 µM, a TGI (NCI-H522 lung) of over 100 µM and a TGI (OVCAR-3 ovarian) of 6.52 µM. The TGI (HCT-116 colon) was over 100 µM, the TGI (M14 melanoma) was over 100 µM and the TGI (HL-60(TB) leukemia) was over 100 µM. For the same compound, the TGI (OVCAR-8 ovarian) was over 100 µM, the TGI (IGROV1 ovarian) was over 100 µM and the TGI (NCI-H460 lung) was over 100 µM. For the same compound, the GI50 (K-562 leukemia) was 0.301 µM, the TGI (K-562 leukemia) was 22.9 µM and the TGI (MDA-MB-435) was over 100 µM.
For `CC1CN=C(NCc2ccccc2)S1` (stereo not drawn), the TGI (NCI-H226 lung) was over 100 µM, the TGI (NCI-H522 lung) was over 100 µM and the TGI (OVCAR-3 ovarian) was over 100 µM. The TGI (HCT-116 colon) was over 100 µM, the TGI (M14 melanoma) was over 100 µM and the TGI (HL-60(TB) leukemia) was over 100 µM. The TGI (NCI-H460 lung) was over 100 µM, the TGI (K-562 leukemia) was over 100 µM and the TGI (MALME-3M melanoma) was over 100 µM. The TGI (MDA-MB-435) was over 100 µM.
`COc1cc(/C=C2\CCCC3=C2NC(N)=NC3c2cc(OC)c(OC)c(OC)c2)cc(OC)c1OC` (stereo not drawn) was tested, and the GI50 (HCT-116 colon) was 0.551 µM, the TGI (HCT-116 colon) was 1.97 µM and the GI50 (M14 melanoma) was 0.633 µM. It also gave a TGI (M14 melanoma) of 2.91 µM, a GI50 (HL-60(TB) leukemia) of 2.6 µM and a TGI (HL-60(TB) leukemia) of over 100 µM. For the same compound, the GI50 (OVCAR-8 ovarian) was 0.298 µM, the TGI (OVCAR-8 ovarian) was 12.1 µM and the GI50 (IGROV1 ovarian) was 3.35 µM. It also gave a TGI (IGROV1 ovarian) of over 100 µM, a GI50 (K-562 leukemia) of 2.15 µM and a TGI (K-562 leukemia) of over 100 µM. For the same compound, the GI50 (MALME-3M melanoma) was 1.92 µM, the TGI (MALME-3M melanoma) was 5.47 µM and the GI50 (MDA-MB-435) was 0.422 µM. For the same compound, the TGI (MDA-MB-435) was over 100 µM.
